Measurements published in patent US8119643B2, “Benzoimidazolyl-pyrazine compounds for inflammation and immune-related uses” (Synta Pharmaceuticals Corp., priority 2006, dated 2012).
Entries after “also recorded” stand apart in the source; their conditions may differ.

Columns and labels:
IL-2 production = assay: Inhibition of IL-2 production in PHA-activated Jurkat cells (ELISA); type: cell-based; settings: Homo sapiens, PHA 2.5 μg/mL, 20 hours, IL-2 ELISA
[1] = tested on: Delayed-Type Hypersensitivity (DTH) reaction; assay: Inhibition of delayed-type hypersensitivity (DTH) reaction in rats; type: in vivo, Lewis rats; settings: rat DTH
Description: Lewis rats (n=7 each group) were sensitized with chicken ovalbumin (OVA; Sigma, A5503) and complete Freund's adjuvant (CFA; Sigma F5881) was injected into tail base by s.c. on day 0. On day 7, the animals were challenged with ovalbumin (OVA) on their right ears.
Compounds 1 and 10 were prepared in vehicle solution (20% Vitamin E TPGS and 80% PEG-8).
Female Lewis rats, 6-8 weeks of age, were obtained from Charles River Laboratories and permitted to acclimate for one week prior to experimental procedures. Rodents were allowed water and food ad libitum. Animals were housed in accordance with the Institutional Animal Care and Use Committee (IACUC), and experiments were performed in compliance with IACUC guidelines.
Rat ears were measured with a dial thickness gauge (Mitutoyo gauge #8, Mitutoyo, USA). The swelling response was calculated by subtracting the ear thickness before challenge (baseline) from that of the same ear after challenge. To measure the ear weight, both left and right ears of euthanized rats were punched out with cork holer, the ear weight change was calculated by subtracting the saline-treated left ear weight from that of the OVA-challenged right ear weight.
Delayed-type hypersensitivity is an in vivo T cell-dependent immune response manifested as an inflammatory reaction that reaches peak intensity 24 hr after OVA challenge. To determine the immunosuppressive effect of Compounds 1 and 10 in the rat DTH reaction, groups of rats (n=7) were administered with either vehicle, Compound 1 or Compound 10, orally three times, starting 2 hr before ear challenge, and 3 and 9 hr after ear challenge.

[2] = 15 mg/kg orally at −2, +3, +9 hr, 24 hr after OVA challenge, relative to vehicle-treated group

IC50 (IL-2 production): 12 nM
Compound: COc1ccc2c(c1)nc(C(F)(F)F)n2-c1cnc(NC(=O)c2ccccc2C)cn1 [Compound 10, N-[5-(5-Methoxy-2-trifluoromethyl-benzoimidazol-1-yl)-pyrazin-2-yl]-2-methyl-benzamide]
Inhibition of gross change (%) Ear thickness (mm) [1, 2]: 15%
Inhibition of gross change (%) Ear weight (mg) [1, 2]: 24%
effect on ear weight after ovalbumin challenge ([1]; compared to vehicle alone, FIGS. 1 and 2): even stronger effect on reducing ear thickness and weight after challenge than Compound 1; also recorded: reduced ear thickness and weight after challenge more than dosing with cyclosporine A
effect on ear thickness after ovalbumin challenge ([1]; compared to vehicle alone, FIGS. 3 and 4): even stronger effect on reducing ear thickness and weight after challenge than Compound 1; also recorded: reduced ear thickness and weight after challenge more than dosing with cyclosporine A
